Measured values taken from US20120288456A1, “NOVEL COMPOUND” (priority 2009, published 2012).

How the values were obtained:
[1] = Comparative solubility of BMDBM in 1:1 mixture of C12-15 alkyl benzoate and a polymeric or solid UV-filter
Description: Where necessary the mixture was centrifuged in order to obtain a clear supernatant.

[2] = Solubility of BMDBM and BEMT in cosmetic solvent with and without PG-UVB (saturation, HPLC of supernatant; storage test); details: 200 mg BEMT in 800 mg diethylhexyl adipate/PG-UVB1 1:1, 1 month at RT

Δ solubility of BMDBM related to cosmetic solvent ([1]; C12-15 alkyl benzoate/UV-filter 1:1, label = UV-filter): −4 wt.-%
Δ solubility of BMDBM ([1]; C12-15 alkyl benzoate/UV-filter 1:1 versus C12-15 alkyl benzoate, label = UV-filter): −11 wt.-%
Solubility of BMDBM in C12-15 alkyl benzoate/UV-filter 1:1 ([1]; label = UV-filter in 1:1 mixture, 200 mg BMDBM in 1000 mg mixture, 1 month at RT, HPLC of supernatant): 3 wt.-%
re-crystallization on storage [2]: no re-crystallization occurred
SMILES: CCCCC(CC)COc1ccc(-c2nc(-c3ccc(OC)cc3)nc(-c3ccc(OCC(CC)CCCC)cc3O)n2)c(O)c1 (stereo not shown) [BEMT, bis-ethylhexyloxyphenol methoxyphenyl triazine]
